Data on one compound can be found in patent US11529334B2, “Pharmaceutical composition for treating or preventing Parkinson's disease comprising STT as an active ingredient” (GACHON UNIVERSITY OF INDUSTRY—ACADEMIC COOPERATION …, priority 2019, dated 2022).

The target of this assay is T1, TPP domain of DUSP10 (Homo sapiens, UniProt Q9Y6W6).
T1 sequence (Q9Y6W6 321-464 limits assumed): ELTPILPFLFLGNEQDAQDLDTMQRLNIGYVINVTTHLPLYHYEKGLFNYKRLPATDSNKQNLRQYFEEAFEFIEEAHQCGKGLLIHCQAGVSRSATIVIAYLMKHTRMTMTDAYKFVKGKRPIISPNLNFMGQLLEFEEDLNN
The assay is described as follows: SPR (Surface Plasmon Resonance) assay, Reichert SR7500DC. It counts as binding. How it is done:
SPR (Surface Plasmon Resonance) assay was performed using Reichert SR7500DC system to confirm the presence or absence of interaction between the compounds above and the TPP domain of DUSP10.

[1] abbreviates: Table 1, running buffer 1xPBS, 2% DMSO.
The mark [2] stands for this setting: Table 1, running buffer 1xPBS, pH 7.4.

Broadly, the Kd is the concentration at which binding is half-saturated. A higher Kd goes with a looser complex.

Regarding `O=S(=O)(O)CCN1CCOCC1` [MES], the “interaction with the TPP domain (in words)” value (SPR) is given as “weak interaction”. Moreover, under setting [1], the “Ka (association rate)” value is 2.90(4) M−^1-s−^1, the Kd was 12.3 mM and the “Kd (dissociation rate)” value was 0.0357(6) s−^1. In addition, under setting [2], the “Ka (association rate)” value is reported as 3.50(5) M−^1-s−^1; the affinity, expressed as Kd, was 17.9 mM; the “Kd (dissociation rate)” value was 0.0627(9) s−^1. Binding (Table 2, 0-200 mM analyte) was characterised by a dissociation constant (Kd) of 63 mM. In addition, the Ka (Table 2, higher analyte concentrations (MES up to 200 mM, STT up to 10 mM)) is 0.152(7) M−^1-s−^1. In addition, the “dissociation rate constant (kd)” value (Table 2, second column headed Ka, higher analyte concentrations) is recorded as 0.0096(2) s−^1.
